# PMC9732455, “PCW-A1001, AI-assisted de novo design approach to design a selective inhibitor for FLT-3(D835Y) in acute myeloid leukemia” (Frontiers in Molecular Biosciences, 2022)
# Tests used:
# FLT-3 WT = target: T1, FLT-3 WT (Homo sapiens, UniProt P36888); assay: in vitro kinase assay (ThermoFisher), dose-response; type: biochemical
# T1 construct: gene FLT3
# T1 sequence (P36888 27-993): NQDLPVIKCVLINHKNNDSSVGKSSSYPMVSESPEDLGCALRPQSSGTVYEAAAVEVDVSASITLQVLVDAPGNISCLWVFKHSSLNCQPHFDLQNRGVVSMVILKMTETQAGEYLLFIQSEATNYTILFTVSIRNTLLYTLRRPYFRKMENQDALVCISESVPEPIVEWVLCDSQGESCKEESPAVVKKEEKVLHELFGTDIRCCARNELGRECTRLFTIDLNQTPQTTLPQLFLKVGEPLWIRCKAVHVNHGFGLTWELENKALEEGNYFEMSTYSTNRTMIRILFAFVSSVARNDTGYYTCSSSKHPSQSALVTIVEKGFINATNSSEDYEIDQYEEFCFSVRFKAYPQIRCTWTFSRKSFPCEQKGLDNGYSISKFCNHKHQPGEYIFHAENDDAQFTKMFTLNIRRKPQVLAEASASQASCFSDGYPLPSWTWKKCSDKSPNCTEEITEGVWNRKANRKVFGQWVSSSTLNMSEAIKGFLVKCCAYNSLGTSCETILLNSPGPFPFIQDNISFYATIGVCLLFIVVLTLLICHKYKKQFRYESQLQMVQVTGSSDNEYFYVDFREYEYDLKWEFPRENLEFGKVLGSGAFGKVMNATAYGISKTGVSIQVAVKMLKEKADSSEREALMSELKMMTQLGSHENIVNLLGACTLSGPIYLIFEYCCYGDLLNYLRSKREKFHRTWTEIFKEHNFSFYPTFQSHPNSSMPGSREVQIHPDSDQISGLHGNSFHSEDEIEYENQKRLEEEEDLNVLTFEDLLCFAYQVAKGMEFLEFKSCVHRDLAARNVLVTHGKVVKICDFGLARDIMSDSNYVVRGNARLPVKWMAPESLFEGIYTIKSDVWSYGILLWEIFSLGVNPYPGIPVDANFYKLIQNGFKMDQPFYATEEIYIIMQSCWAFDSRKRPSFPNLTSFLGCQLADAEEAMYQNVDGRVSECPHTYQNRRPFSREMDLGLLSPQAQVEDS
# FLT-3 (D835Y) = target: T2, FLT-3 (D835Y) (Homo sapiens, UniProt P36888, D835Y); assay: as above; type: biochemical
# T2 construct: gene FLT3
# T2 sequence (P36888 564-993 D835Y limits assumed): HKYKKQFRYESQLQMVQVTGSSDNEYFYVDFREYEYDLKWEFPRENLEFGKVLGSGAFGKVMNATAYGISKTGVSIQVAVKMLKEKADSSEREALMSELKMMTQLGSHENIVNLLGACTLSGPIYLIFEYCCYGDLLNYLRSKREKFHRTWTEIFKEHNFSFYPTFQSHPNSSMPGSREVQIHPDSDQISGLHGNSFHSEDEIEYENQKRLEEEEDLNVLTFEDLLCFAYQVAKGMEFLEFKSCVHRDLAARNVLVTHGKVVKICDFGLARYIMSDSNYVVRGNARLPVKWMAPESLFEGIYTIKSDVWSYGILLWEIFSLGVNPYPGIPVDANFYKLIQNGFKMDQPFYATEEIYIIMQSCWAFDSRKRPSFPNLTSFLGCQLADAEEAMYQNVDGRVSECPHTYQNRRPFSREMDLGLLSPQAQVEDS
smiles,measurement,setting,value
CC(C)(C)c1ccc(C(=O)Nc2ccc(C(N)=O)c(NC3CCCNC3)c2)cc1 (centres unmarked) [PCW-A1001],IC50,FLT-3 WT,2.54 µM
same,IC50,FLT-3 (D835Y),0.764 µM
